These results are taken from article PMC13401508 (Pharmacological research, 2026).

The assay deals with CXCL5. As to the kind of experiment: CXCL5 mRNA by qRT-PCR in murine BM-MSCs (WT and mda-9 KO). The format is cell-based, C57BL/6 mice. The note with it: murine PDGF-AA 10 ng/ML, 25 μM, 24 hrs. The method, then: Total bone marrow cells were collected from 6 to 8 weeks male MDA-9/Syntenin^WT (mda-9^WT) and global MDA-9/Syntenin knockout (mda-9^−/−) mice as previously described in Das et al.. mda-9^WT and mda-9^−/− bone marrow derived mesenchymal stromal cells were isolated using a previously outlined protocol.
Fig. 3. […] CXCL5 mRNA expression was measured by qRT-PCR. […] Secreted CXCL5 in CM was measured by ELISA (n = 3 ± SD; * p < 0.05). […] CXCL5 mRNA expression was measured by qRT-PCR (n = 3 ± SD; * p < 0.05).

For the molecule `Cc1cc(NC(=O)CCc2nnc(-c3ccccc3)o2)c(C)cc1N` [IVMT-Rx-4], the “CXCL5 mRNA expression” value (mBM-MSC WT) is “CXCL5 suppression occurred exclusively in mBM-MSC^WT” and the “CXCL5 mRNA expression” value (mBM-MSC mda-9 KO) is “not in mBM-MSC^mda−9 KO cells”.
